In the supplement of paper PMC11061612:

Legend:
Carboplatin = compound: C1CC(C1)(C(=O)[O-])C(=O)[O-].N.N.[Pt+2] [Carboplatin]; details: max 10 µM
In short: (§1)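 Plates with 1536 wells received cancer cell lines in 7.5 μl of DMEM/F12 or RPMI containing 10% FBS. After 24 hours at 37°C and 5% CO2, cells were dosed for 72 hours with final DMSO typically 0.2%, and viability was read by CellTiter-Glo 2.0 luminescence scaled between blank-well and DMSO-well means. The single-agent IC50 was taken from a logistic fit of the dose responses made with a non-linear mixed effects model, that logistic curve having two parameters.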

AZD5363 = compound: C1CN(CCC1(C(=O)N[C@@H](CCO)C2=CC=C(C=C2)Cl)N)C3=NC=NC4=C3C=CN4 [AZD5363]; details: max 10 µM
In short: as §1

AZD1775 = compound: C=CCn1c(=O)c2cnc(Nc3ccc(N4CCN(C)CC4)cc3)nc2n1-c1cccc(C(C)(C)O)n1 [AZD1775]; details: max 3 µM
In short: as §1

Trametinib = compound: CC(=O)Nc1cccc(-n2c(=O)n(C3CC3)c(=O)c3c(Nc4ccc(I)cc4F)n(C)c(=O)c(C)c32)c1 [Trametinib]; details: max 1 µM
In short: as §1

Paclitaxel = compound: CC(=O)O[C@H]1C(=O)[C@@]2(C)[C@H]([C@H](OC(=O)c3ccccc3)[C@]3(O)C[C@H](OC(=O)[C@H](O)[C@@H](NC(=O)c4ccccc4)c4ccccc4)C(C)=C1C3(C)C)[C@]1(OC(C)=O)CO[C@@H]1C[C@@H]2O [Paclitaxel]; details: max 3 µM
In short: as §1

Palbociclib = compound: CC(=O)c1c(C)c2cnc(Nc3ccc(N4CCNCC4)cn3)nc2n(C2CCCC2)c1=O [Palbociclib]; details: max 10 µM
In short: as §1

AZD1390 = compound: CC(C)n1c(=O)n(C)c2cnc3cc(F)c(-c4ccc(OCCCN5CCCCC5)nc4)cc3c21 [AZD1390]; details: max 0.3 µM
In short: as §1

Venetoclax = compound: CC1(C)CCC(CN2CCN(c3ccc(C(=O)NS(=O)(=O)c4ccc(NCC5CCOCC5)c([N+](=O)[O-])c4)c(Oc4cnc5[nH]ccc5c4)c3)CC2)=C(c2ccc(Cl)cc2)C1 [Venetoclax]; details: max 1 µM
In short: as §1

Dasatinib = compound: CC1=C(C(=CC=C1)Cl)NC(=O)C2=CN=C(S2)NC3=CC(=NC(=N3)C)N4CCN(CC4)CCO [Dasatinib]; details: max 2 µM
In short: as §1

SG3199 = compound: CC1=CN2[C@@H](C1)C=NC3=CC(=C(C=C3C2=O)OC)OCCCCCOC4=C(C=C5C(=C4)N=C[C@@H]6CC(=CN6C5=O)C)OC [SG3199]; details: max 0.001 µM
In short: as §1

AZD2811 = compound: CCN(CCO)CCCOc1ccc2c(Nc3cc(CC(=O)Nc4cccc(F)c4)[nH]n3)ncnc2c1 [AZD2811]; details: max 1 µM
In short: as §1

SN-38 = compound: CCc1c2c(nc3ccc(O)cc13)-c1cc3c(c(=O)n1C2)COC(=O)[C@]3(O)CC [SN-38]; details: max 0.3 µM
In short: as §1

AZD0156 = compound: CN(C)CCCOc1ccc(-c2ccc3ncc4c(c3c2)n(C2CCOCC2)c(=O)n4C)cn1 [AZD0156]; details: max 3 µM
In short: as §1

AZD4320 = compound: CN(CC[C@H](CSC1=CC=CC=C1)NC2=C(C=C(C=C2)S(=O)(=O)NC(=O)C3=CC=C(C=C3)N4CCC(CC4)[C@H](C5=CC=CC=C5C6=CC=C(C=C6)Cl)O)S(=O)(=O)C(F)(F)F)CCO [AZD4320]; details: max 1 µM
In short: as §1

Alisertib = compound: COc1cc(Nc2ncc3c(n2)-c2ccc(Cl)cc2C(c2c(F)cccc2OC)=NC3)ccc1C(=O)O [Alisertib]; details: max 10 µM
In short: as §1

Etoposide = compound: COc1cc([C@@H]2c3cc4c(cc3[C@@H](O[C@@H]3O[C@@H]5CO[C@@H](C)O[C@H]5[C@H](O)[C@H]3O)[C@H]3COC(=O)[C@H]23)OCO4)cc(OC)c1O [Etoposide]; details: max 10 µM
In short: as §1

Gefitinib = compound: COc1cc2ncnc(Nc3ccc(F)c(Cl)c3)c2cc1OCCCN1CCOCC1 [Gefitinib]; details: max 10 µM
In short: as §1

Prexasertib = compound: COc1cccc(OCCCN)c1-c1cc(Nc2cnc(C#N)cn2)n[nH]1 [Prexasertib]; details: max 1 µM
In short: as §1

Doxorubicin = compound: COc1cccc2c1C(=O)c1c(O)c3c(c(O)c1C2=O)C[C@@](O)(C(=O)CO)C[C@@H]3O[C@H]1C[C@H](N)[C@H](O)[C@H](C)O1 [Doxorubicin]; details: max 1 µM
In short: as §1

AZD5153 = compound: COc1nnc2ccc(N3CCC(c4ccc(OCCN5CCN(C)C(=O)[C@H]5C)cc4)CC3)nn12 [AZD5153]; details: max 1 µM
In short: as §1

Lapatinib = compound: CS(=O)(=O)CCNCc1ccc(-c2ccc3ncnc(Nc4ccc(OCc5cccc(F)c5)c(Cl)c4)c3c2)o1 [Lapatinib]; details: max 10 µM
In short: as §1

AZD8186 = compound: C[C@@H](Nc1cc(F)cc(F)c1)c1cc(C(=O)N(C)C)cc2c(=O)cc(N3CCOCC3)oc12 [AZD8186]; details: max 10 µM
In short: as §1

Crizotinib = compound: C[C@@H](Oc1cc(-c2cnn(C3CCNCC3)c2)cnc1N)c1c(Cl)ccc(F)c1Cl [Crizotinib]; details: max 10 µM
In short: as §1

Savolitinib = compound: C[C@@H](c1ccc2nccn2c1)n1nnc2ncc(-c3cnn(C)c3)nc21 [Savolitinib]; details: max 1 µM
In short: as §1

AZD6738 = compound: C[C@@H]1COCCN1C2=NC(=NC(=C2)C3(CC3)[S@](=N)(=O)C)C4=C5C=CNC5=NC=C4 [AZD6738]; details: max 10 µM
In short: as §1

AZD5991 = compound: Cc1c2c(nn1C)CSCc1cc(n(C)n1)CSc1cc(c3ccccc3c1)OCCCc1c(C(=O)O)n(C)c3c-2c(Cl)ccc13 [AZD5991]; details: max 1 µM
In short: as §1

AZD7648 = compound: Cc1cc2ncnn2cc1Nc1ncc2c(n1)n(C1CCOCC1)c(=O)n2C [AZD7648]; details: max 10 µM
In short: as §1

Taselisib = compound: Cc1nc(-c2cn3c(n2)-c2ccc(-c4cnn(C(C)(C)C(N)=O)c4)cc2OCC3)n(C(C)C)n1 [Taselisib]; details: max 10 µM
In short: as §1

Selumetinib = compound: Cn1cnc2c(F)c(Nc3ccc(Br)cc3Cl)c(C(=O)NOCCO)cc21 [Selumetinib]; details: max 10 µM
In short: as §1

SRA737 = compound: N#Cc1cnc(Nc2cc(NC[C@H]3CNCCO3)c(C(F)(F)F)cn2)cn1 [SRA737]; details: max 10 µM
In short: as §1

MK-2206 = compound: NC1(c2ccc(-c3nc4ccn5c(=O)[nH]nc5c4cc3-c3ccccc3)cc2)CCC1 [MK-2206]; details: max 10 µM
In short: as §1

Gemcitabine = compound: Nc1ccn([C@@H]2O[C@H](CO)[C@@H](O)C2(F)F)c(=O)n1 [Gemcitabine]; details: max 0.3 µM
In short: as §1

[1] = compound: O=C(Nc1ccc2[nH]nc(-c3ccncc3)c2c1)[C@@H]1CCN(CC(=O)N2CCN(c3ccc(-c4ncccn4)cc3)CC2)C1; details: max 5 µM
In short: as §1

Olaparib = compound: O=C(c1cc(Cc2n[nH]c(=O)c3ccccc23)ccc1F)N1CCN(C(=O)C2CC2)CC1 [Olaparib]; details: max 10 µM
In short: as §1

5-Fluorouracil = compound: O=c1[nH]cc(F)c(=O)[nH]1 [5-Fluorouracil]; details: max 20 µM
In short: as §1

Cell Line	IC50, cell viability 72 h (Carboplatin)	IC50, cell viability 72 h (AZD5363)	IC50, cell viability 72 h (AZD1775)	IC50, cell viability 72 h (Trametinib)	IC50, cell viability 72 h (Paclitaxel)	IC50, cell viability 72 h (Palbociclib)	IC50, cell viability 72 h (AZD1390)	IC50, cell viability 72 h (Venetoclax)	IC50, cell viability 72 h (Dasatinib)	IC50, cell viability 72 h (SG3199)	IC50, cell viability 72 h (AZD2811)	IC50, cell viability 72 h (SN-38)	IC50, cell viability 72 h (AZD0156)	IC50, cell viability 72 h (AZD4320)	IC50, cell viability 72 h (Alisertib)	IC50, cell viability 72 h (Etoposide)	IC50, cell viability 72 h (Gefitinib)	IC50, cell viability 72 h (Prexasertib)	IC50, cell viability 72 h (Doxorubicin)	IC50, cell viability 72 h (AZD5153)	IC50, cell viability 72 h (Lapatinib)	IC50, cell viability 72 h (AZD8186)	IC50, cell viability 72 h (Crizotinib)	IC50, cell viability 72 h (Savolitinib)	IC50, cell viability 72 h (AZD6738)	IC50, cell viability 72 h (AZD5991)	IC50, cell viability 72 h (AZD7648)	IC50, cell viability 72 h (Taselisib)	IC50, cell viability 72 h (Selumetinib)	IC50, cell viability 72 h (SRA737)	IC50, cell viability 72 h (MK-2206)	IC50, cell viability 72 h (Gemcitabine)	IC50, cell viability 72 h [1]	IC50, cell viability 72 h (Olaparib)	IC50, cell viability 72 h (5-Fluorouracil)
MDA-MB-415 (Breast Carcinoma)	> 10000 nM	727 nM	> 3000 nM	> 1000 nM	29.8 nM	> 10000 nM	> 300 nM	> 1000 nM	> 2000 nM	> 1 nM	> 1000 nM	> 300 nM	> 3000 nM	847 nM	> 10000 nM	> 10000 nM	> 10000 nM	> 1000 nM	> 1000 nM	> 1000 nM	> 10000 nM	216 nM	> 10000 nM	> 1000 nM	> 10000 nM	> 1000 nM	> 10000 nM	6010 nM	> 10000 nM	> 10000 nM	1250 nM	> 300 nM	> 5000 nM	> 10000 nM	> 20000 nM
MONO-MAC-6 (Acute Myeloid Leukemia)	> 10000 nM	5270 nM	535 nM	446 nM	7.21 nM	> 10000 nM	> 300 nM	> 1000 nM	> 2000 nM	> 1 nM	303 nM	7.64 nM	> 3000 nM	> 1000 nM	2090 nM	2850 nM	> 10000 nM	52 nM	127 nM	30.6 nM	> 10000 nM	6440 nM	2980 nM	> 1000 nM	3400 nM	67.8 nM	> 10000 nM	4750 nM	> 10000 nM	3350 nM	4140 nM	4.43 nM	2100 nM	> 10000 nM	1630 nM
MS-1 (Small Cell Lung Carcinoma)	> 10000 nM	> 10000 nM	531 nM	> 1000 nM	104 nM	> 10000 nM	> 300 nM	> 1000 nM	> 2000 nM	> 1 nM	> 1000 nM	57.7 nM	> 3000 nM	> 1000 nM	> 10000 nM	7200 nM	> 10000 nM	22 nM	244 nM	120 nM	> 10000 nM	> 10000 nM	6280 nM	> 1000 nM	4380 nM	> 1000 nM	> 10000 nM	> 10000 nM	> 10000 nM	9420 nM	> 10000 nM	197 nM	> 5000 nM	> 10000 nM	> 20000 nM
NAMALWA (Burkitt's Lymphoma)	> 10000 nM	9010 nM	300 nM	> 1000 nM	4.84 nM	9880 nM	> 300 nM	> 1000 nM	> 2000 nM	> 1 nM	> 1000 nM	2.63 nM	> 3000 nM	> 1000 nM	689 nM	272 nM	> 10000 nM	10.5 nM	41.4 nM	43.1 nM	> 10000 nM	7520 nM	2320 nM	> 1000 nM	1140 nM	61.1 nM	> 10000 nM	2020 nM	> 10000 nM	1670 nM	8200 nM	6.04 nM	> 5000 nM	> 10000 nM	14500 nM
NCI-H226 (Mesothelioma)	> 10000 nM	> 10000 nM	> 3000 nM	> 1000 nM	> 3000 nM	> 10000 nM	> 300 nM	> 1000 nM	> 2000 nM	> 1 nM	> 1000 nM	> 300 nM	> 3000 nM	> 1000 nM	> 10000 nM	> 10000 nM	> 10000 nM	> 1000 nM	> 1000 nM	> 1000 nM	> 10000 nM	> 10000 nM	> 10000 nM	> 1000 nM	> 10000 nM	> 1000 nM	> 10000 nM	> 10000 nM	> 10000 nM	> 10000 nM	> 10000 nM	> 300 nM	> 5000 nM	> 10000 nM	> 20000 nM
